Numbers after ± are expanded uncertainties.
What was measured:
[1] = 101.3 kPa, Liquid; for speed of sound: Frequency=3 MHz, Sing-around technique in a fixed-path interferometer; for mass density: Vibrating tube method
[2] = refractive index (Na D-line) (dimensionless); conditions: 101.3 kPa, Liquid, Standard Abbe refractometry
[3] = refractive index (Na D-line) (dimensionless); xn = mol fraction of the nth substance listed; conditions: 101.3 kPa, Liquid, Standard Abbe refractometry, x2 = 0
[4] = xn = mol fraction of the nth substance listed; conditions: 101.3 kPa, Liquid, x2 = 0; for speed of sound: Frequency=3 MHz, Sing-around technique in a fixed-path interferometer; for mass density: Vibrating tube method

| SMILES | speed of sound ([1]; 298 K) | mass density ([1]; 298 K) | speed of sound ([1]; 303 K) | mass density ([1]; 303 K) | speed of sound ([1]; 308 K) | mass density ([1]; 308 K) | refractive index ([2]; 298 K) | refractive index ([2]; 303 K) | refractive index ([2]; 308 K) | refractive index ([3]; 298 K) | refractive index ([3]; 303 K) | refractive index ([3]; 308 K) | speed of sound ([4]; 298 K) | mass density ([4]; 298 K) | speed of sound ([4]; 303 K) | mass density ([4]; 303 K) | speed of sound ([4]; 308 K) | mass density ([4]; 308 K) |
| --- | --- | --- | --- | --- | --- | --- | --- | --- | --- | --- | --- | --- | --- | --- | --- | --- | --- | --- |
| CN1CCCC1=O [N-methylpyrrolidone] + CCOc1ccccc1 | – | – | – | – | – | – | – | – | – | 1.467 ± 0.002 | 1.466 ± 0.002 | 1.464 ± 0.002 | 1546 ± 2 m/s | 1026 ± 2 kg/m3 | 1526 ± 2 m/s | 1022 ± 2 kg/m3 | 1507 ± 2 m/s | 1018 ± 2 kg/m3 |
| CCOc1ccccc1 [ethoxybenzene] | 1369 ± 2 m/s | 960 ± 2 kg/m3 | 1349 ± 2 m/s | 955 ± 2 kg/m3 | 1329 ± 2 m/s | 951 ± 2 kg/m3 | 1.505 ± 0.002 | 1.503 ± 0.002 | 1.499 ± 0.002 | – | – | – | – | – | – | – | – | – |
| C1CCOC1 [tetrahydrofuran] | 1278 ± 2 m/s | 882 ± 2 kg/m3 | 1254 ± 2 m/s | 878 ± 2 kg/m3 | 1230 ± 2 m/s | 874 ± 2 kg/m3 | 1.405 ± 0.002 | 1.403 ± 0.002 | 1.4 ± 0.002 | – | – | – | – | – | – | – | – | – |

Other lines, results leading:

| speed of sound ([1]; 298 K) | mass density ([1]; 298 K) | speed of sound ([1]; 303 K) | mass density ([1]; 303 K) | speed of sound ([1]; 308 K) | mass density ([1]; 308 K) | refractive index ([2]; 298 K) | refractive index ([2]; 303 K) | refractive index ([2]; 308 K) | refractive index ([3]; 298 K) | refractive index ([3]; 303 K) | refractive index ([3]; 308 K) | speed of sound ([4]; 298 K) | mass density ([4]; 298 K) | speed of sound ([4]; 303 K) | mass density ([4]; 303 K) | speed of sound ([4]; 308 K) | mass density ([4]; 308 K) | SMILES |
| --- | --- | --- | --- | --- | --- | --- | --- | --- | --- | --- | --- | --- | --- | --- | --- | --- | --- | --- |
| 1546 ± 2 m/s | 1026 ± 2 kg/m3 | 1526 ± 2 m/s | 1022 ± 2 kg/m3 | 1507 ± 2 m/s | 1018 ± 2 kg/m3 | 1.467 ± 0.002 | 1.466 ± 0.002 | 1.464 ± 0.002 | – | – | – | – | – | – | – | – | – | CN1CCCC1=O [N-methylpyrrolidone] |
| 1457 ± 2 m/s | 944 ± 2 kg/m3 | 1437 ± 2 m/s | 939 ± 2 kg/m3 | 1420 ± 2 m/s | 935 ± 2 kg/m3 | 1.429 ± 0.002 | 1.427 ± 0.002 | 1.425 ± 0.002 | – | – | – | – | – | – | – | – | – | CN(C)C=O [dimethylformamide] |
| – | – | – | – | – | – | – | – | – | 1.429 ± 0.002 | 1.427 ± 0.002 | 1.425 ± 0.002 | 1457 ± 2 m/s | 944 ± 2 kg/m3 | 1437 ± 2 m/s | 939 ± 2 kg/m3 | 1420 ± 2 m/s | 935 ± 2 kg/m3 | CN(C)C=O [dimethylformamide] + CCOc1ccccc1 |
| – | – | – | – | – | – | – | – | – | 1.405 ± 0.002 | 1.403 ± 0.002 | 1.4 ± 0.002 | 1278 ± 2 m/s | 882 ± 2 kg/m3 | 1254 ± 2 m/s | 878 ± 2 kg/m3 | 1230 ± 2 m/s | 874 ± 2 kg/m3 | C1CCOC1 [tetrahydrofuran] + CCOc1ccccc1 |
